Reference: article PMC5601360 (Journal of Medicinal Chemistry, 2017)
Read-outs that look alike come from different tables or passages of the source.

Legend:
human KOP receptor [1] = molecular target: T1, human KOP receptor (Homo sapiens, UniProt P41145); conditions: ref 9a, cited from earlier work
T1 construct: expressed in transfected cells; host or cells: CHO-hKOP cells (gift of Dr. Lawrence Toll, SRI International)

human KOP receptor [2] = molecular target: T1, human KOP receptor; conditions: percentage stimulation relative to the KOP full agonist U69,593; ref 9a; cited from earlier work
human DOP receptor [3] = molecular target: T2, human DOP receptor (Homo sapiens, UniProt P41143); conditions: CHO-hDOP membranes; ref 9a; read-out: receptor binding affinity Ki DOP; cited from earlier work
T2 construct: expressed in transfected cells; host or cells: CHO-hDOP cells (gift of Dr. Lawrence Toll, SRI International)

CD1 mice = conditions: mouse, in vivo, sc; for effect on rotarod latencies (motor behavior): 7.5 mg/kg
mice = conditions: icv, ref 9d; cited from earlier work
[4] = tested on: acetic acid-induced writhing in CD1 mice; assay: Acetic acid-induced writhing assay in mice after sc administration; format: in vivo; conditions: for ED50: Mus musculus, 0.5 h, CD1 mice, inhibition of writhing at 30 min after drug administration, read-out: antinociceptive ED50 (95% CI); for antagonism by nor-BNI of the antinociceptive effect: nor-BNI 20 mg/kg sc 24 h before agonist (2: 5 mg/kg; 3: 1 mg/kg; 4: […] sc)
Description: Male CD1 mice (30–35 g, 6–8 weeks old) were obtained from the Center of Biomodels and Experimental Medicine (CBEM) (Innsbruck, Austria) or Charles River (Sulzfeld, Germany). Mice were group-housed in a temperature controlled room with a 12 h light/dark cycle and with free access to food and water. All animal studies were conducted in accordance with ethical guidelines and animal welfare standards according to Austrian regulations for animal research and were approved by the Committee of Animal Care of the Austrian Federal Ministry of Science and Research. Solutions of test compounds were prepared as 1% DMSO solutions in sterile physiological 0.9% saline and further diluted to working doses in saline solution. Test compounds or vehicle (saline) were administered by sc route in a volume of 10 μL/1 g of body weight. All doses are expressed in terms of salts. Separate groups of mice received the respective dose of compound, and individual mice were only used once for behavioral testing. Each experimental group included at least five animals.
Writhing was induced in male CD1 mice by intraperitoneal (ip) injection of a 0.6% acetic acid aqueous solution as described previously.[9a] Groups of mice were administered sc different doses of test compound or saline (control), and then 5 min prior to testing (25 min after drug or saline) each animal received an ip injection of acetic acid solution. Each mouse was placed in individual transparent Plexiglas chambers, and the number of writhes was counted during a 10 min observation period. […] For the antagonism studies, nor-BNI (20 mg/kg) was sc administered 24 h before 2 (5 mg/kg) and 17 (10 mg/kg) was sc administered 15 min before U50,488 (2 mg/kg).

[5] = tested on: acetic acid-induced writhing in CD1 mice; conditions: mouse, in vivo, sc; cited from earlier work
human KOP receptor [6] = molecular target: T1, human KOP receptor; assay: Competition binding assay, CHO-hKOP cell membranes, [3H]U69,593; conditions: for Ki: CHO-hKOP membranes, mean ± SEM, read-out: receptor binding affinity Ki KOP; for selectivity DOP/KOP: Ki ratio DOP/KOP; for selectivity MOP/KOP: Ki ratio MOP/KOP
Description: (§1) CHO cells stably expressing recombinant human KOP, MOP, or DOP receptors (CHO-hKOP, CHO-hMOP, and CHO-hDOP cell lines) were kindly provided by Dr. Lawrence Toll (SRI International, Menlo Park, CA). The CHO-hKOP cell line was maintained in Dulbecco’s Minimal Essential Medium (DMEM) supplemented with fetal bovine serum (FBS, 10%), penicillin/streptomycin (0.1%), L-glutamine (2 mM), and geneticin (400 μg/mL). The CHO-hMOP and CHO-hDOP cell lines were maintained in DMEM/Ham’s F-12 medium supplemented with FBS (10%), penicillin/streptomycin (0.1%), L-glutamine (2 mM), and geneticin (400 μg/mL). Cell cultures were maintained at 37 °C in 5% CO2 humidified air.
(§2) Nonspecific binding was determined using 1–10 μM of the unlabeled counterpart of each radioligand. Assays were performed in 50 mM Tris-HCl buffer (pH 7.4) in a final volume of 1 mL. Cell membranes (15–20 μg) were incubated with the appropriate radioligand and various concentrations of test compound for 60 min at 25 °C. After incubation, reactions were terminated by rapid filtration through Whatman glass fiber filters. Filters were washed three times with 5 mL of ice-cold 50 mM Tris-HCl buffer (pH 7.4) using a Brandel M24R cell harvester (Gaithersburg, MD). Radioactivity retained on the filters was counted by liquid scintillation counting using a Beckman Coulter LS6500 (Beckman Coulter Inc., Fullerton, CA). All binding experiments were performed in duplicate and repeated at least three times. The inhibitory constant Ki values (in nM) were calculated from the competition binding curves by nonlinear regression analysis and the Cheng–Prusoff equation.[16]

human KOP receptor [7] = molecular target: T1, human KOP receptor; assay: [35S]GTPγS binding assay using CHO-hKOP cell membranes; format: biochemical; conditions: for EC50: CHO-hKOP membranes, mean ± SEM; for Emax: read-out: [35S]GTPγS KOP % stim
Description: The binding of [^35S]GTPγS to membranes from CHO cells stably expressing human KOP receptors (CHO-hKOP cells) was conducted according to the published procedures.[9a],[9b] CHO-hKOP cell membranes were prepared in buffer A (20 mM HEPES, 10 mM MgCl2, and 100 mM NaCl, pH 7.4). Cell membranes (8–15 μg) in buffer A were incubated with 0.05 nM [^35S]GTPγS, 10 μM GDP, and various concentrations of test compound in a final volume of 1 mL for 60 min at 25 °C. Nonspecific binding was determined using 10 μM GTPγS, and the basal binding was determined in the absence of test ligand. Samples are filtered over glass fiber filters and counted as described for binding assays. […] To determine the KOP antagonist activity, a concentration–response curve for U69,593 was obtained by assessing the [^35S]GTPγS binding to CHO-hKOP cell membranes in the presence or absence of test compound, as previously described.[9b] For each compound, the Schild analysis was conducted, utilizing a full agonist–dose response curve in the presence of at least two concentrations of the antagonist. The equilibrium dissociation constant (Ke) was calculated from the equation Ke = [a]/(DR – 1), where “a” is the concentration of antagonist and DR the virtual shift of the agonist concentration–response curve to the right in the presence of a given concentration of antagonist. All experiments were performed in duplicate and repeated at least three times.

human MOP receptor = molecular target: T3, human MOP receptor (Homo sapiens, UniProt P35372); assay: Competition binding assay, CHO-hMOP cell membranes, [3H]DAMGO; conditions: mean ± SEM, read-out: receptor binding affinity Ki MOP
T3 construct: expressed in transfected cells; host or cells: CHO-hMOP cells (gift of Dr. Lawrence Toll, SRI International)
Description: as §1
as §2, with “. Nonspecific” for “Nonspecific”

human DOP receptor [8] = molecular target: T2, human DOP receptor; assay: Competition binding assay, CHO-hDOP cell membranes, [3H]diprenorphine; conditions: mean ± SEM, read-out: receptor binding affinity Ki DOP
Description: as §1
as §2, with “. Nonspecific” for “Nonspecific”

[9] = percentage stimulation relative to the KOP full agonist U69,593

SMILES | ED50 ([4]; sc) | antagonism by nor-BNI of the antinociceptive effect [4] | Ki (human KOP receptor [6]) | selectivity DOP/KOP (human KOP receptor [6]) | selectivity MOP/KOP (human KOP receptor [6]) | EC50 (human KOP receptor [7]) | Emax (human KOP receptor [7]; [9]) | Ki (human MOP receptor) | effect on rotarod latencies (motor behavior) (CD1 mice) | Ki (human DOP receptor [8]) | other results
Oc1cccc(CCN(CCc2ccccc2)CC2CC2)c1 [Compound 2] | 3.23 mg/kg | blocked by nor-BNI | – | – | – | – | – | – | – | – | selectivity DOP/KOP (human KOP receptor [1]; Ki ratio DOP/KOP): >1700; selectivity MOP/KOP (human KOP receptor [1]; Ki ratio MOP/KOP): 140; [35S]GTPγS KOP % stim (human KOP receptor [2]): 53.4 ± 8.1%; Ki (human DOP receptor [3]): > 10000 nM; effect on rotarod performance (evoked locomotor activity) (CD1 mice): did not affect the evoked locomotor activity; antinociceptive potency compared to U50,488 (mice): equipotent; inhibition of the writhing response ([4]; sc, different doses, 30 min after drug administration): Dose-dependent inhibition of the writhing response
Oc1cccc(CCN(CCc2ccccc2)CC2CCC2)c1 [Compound 1] | – | – | – | – | – | – | – | – | – | – | Ki (human DOP receptor [3]): > 10000 nM; effect on rotarod performance (evoked locomotor activity) (CD1 mice): did not affect the evoked locomotor activity; antinociceptive ED50 (95% CI) [5]: 1.91 (1.02–3.58) mg/kg; antinociceptive potency compared to U50,488 (mice): 2 fold
Cl.Oc1cccc(CCN(CCc2ccccc2)CC2CCC2)c1F [Compound 18, 3-[2-[(Cyclobutylmethyl)(phenethyl)amino]ethyl]-2-fluorophenol Hydrochloride] | 2.64 mg/kg | – | 0.072 ± 0.027 nM | >138000 | 5529 | 6.9 ± 3.35 nM | 71.4% | 398 ± 57 nM | no significant alterations in rotarod latencies | > 10000 nM | –
Cl.Oc1cccc(CCN(CCc2ccccc2)CC2CCCCC2)c1 [Compound 4, 3-[2-[(Cyclohexylmethyl)(phenethyl)amino]ethyl]phenol Hydrochloride] | 1.01 mg/kg | antagonized by the KOP antagonist nor-BNI | 0.061 ± 0.027 nM | 35066 | 8803 | 0.23 ± 0.08 nM | 61.9% | 537 ± 172 nM | no significant alterations in rotarod latencies | 2140 ± 346 nM | increase in agonist potency vs compound 1 (human KOP receptor [7]; EC50 comparison): 16 fold; [35S]GTPγS KOP % stim (human KOP receptor [7]; [9]): 61.9 ± 8.1%; reduction in antinociceptive potency vs compound 3 ([4]; sc, ED50 comparison): about 2 fold
Cl.Oc1cccc(CCN(CCc2ccccc2)CC2CCCC2)c1 [Compound 3, 3-[2-[(Cyclopentylmethyl)(phenethyl)amino]ethyl]phenol Hydrochloride] | 0.49 mg/kg | antagonized by the KOP antagonist nor-BNI | 0.017 ± 0.002 nM | 133471 | 16118 | 3.87 ± 1.44 nM | ≥ 80% | 274 ± 20 nM | no significant alterations in rotarod latencies | 2270 ± 625 nM | increase in antinociceptive potency vs U50,488 ([4]; sc, ED50 comparison): about 3 fold; increase in antinociceptive potency vs compound 1 ([4]; sc, ED50 comparison): 4 fold; increase in antinociceptive potency vs compound 2 ([4]; sc, ED50 comparison): 7 fold
Cl.Oc1cccc(CCN(CCc2ccccc2)CC2CCCCC2)c1F [Compound 19, 3-[2-[(Cyclohexylmethyl)(phenethyl)amino]ethyl]-2-fluorophenol Hydrochloride] | 1.33 mg/kg | – | 0.04 ± 0.006 nM | – | – | 2.77 ± 0.29 nM | ≥ 80% | 851 ± 292 nM | no significant alterations in rotarod latencies | > 10000 nM | –
Cl.Oc1ccc(CCN(CCc2cccc(O)c2)CC2CC2)cc1 [Compound 17, 3-[2-[(Cyclopropylmethyl)(4-hydroxyphenethyl)amino]ethyl]phenol Hydrochloride] | – | – | 3.56 ± 0.94 nM | >2800 | 129 | – | – | 460 ± 127 nM | – | > 10000 nM | Kd (human KOP receptor [7]; antagonist Ke at the KOP receptor against U69,593): 24.3 ± 1.5 nM; functional activity profile at the KOP receptor (human KOP receptor [7]; in vitro, [35S]GTPγS): KOP antagonism; agonist activity in vivo (effect on pain behavior alone) ([4]; 10 mg/kg sc, compared to control mice): did not affect pain behavior; antagonism of U50,488-induced antinociception ([4]; 17 10 mg/kg sc 15 min before U50,488 2 mg/kg sc): complete reversal of U50,488-induced analgesia
Cl.Oc1cccc(CCN(CCc2cccc(O)c2F)CC2CCC2)c1 [Compound 20, 3-[2-[(Cyclobutylmethyl)(3-hydroxyphenethyl)amino]ethyl]-2-fluorophenol Hydrochloride] | 2.25 mg/kg | – | 0.12 ± 0.01 nM | >83000 | 4642 | 1.49 ± 0.04 nM | 57.5 ± 4.4% | 557 ± 198 nM | – | > 10000 nM | increase in KOP affinity vs compound 8 (human KOP receptor [6]; Ki comparison): about 3 fold
CC(C)CCN(CCc1cccc(O)c1)CCc1cccc(O)c1.Cl [Compound 13, 3,3′-[2,2′-(Isoamylazanediyl)bis(ethane-2,1-diyl)]diphenol Hydrochloride] | 2.63 mg/kg | – | 2.1 ± 0.26 nM | 699 | 100 | 16.6 ± 0.7 nM | 65.6 ± 3.4% | 211 ± 17 nM | – | 1470 ± 147 nM | –
